Measurements as given in patent publication US20240293351A1, “METHODS OF ADMINISTERING SYNTHETIC TRITERPENOIDS” (REATA PHARMACEUTICALS HOLDINGS, LLC, priority 2020, published 2024).

Assays:
[1] = Pharmacokinetic study 402-C-1102 in patients with type 2 diabetes and stage 3b/4 CKD (24-h urine); type: in vivo, human; conditions: 20 mg once daily 56 days
[2] = Open label dose-ranging study 402-C-0902 in type 2 diabetic patients with stage 3b-4 CKD; type: in vivo, human; design: ΔSBP, change from baseline / ΔDBP, change from baseline: unit not given beside the values
[3] = 2.5 mg once daily 85 days, CKD Stage 3b/4, N = 14
[4] = 2.5 mg once daily 85 days, CKD Stage 3b, N = 10
[5] = 2.5 mg once daily 85 days, CKD Stage 4, N = 4
[6] = 5 mg once daily 85 days, CKD Stage 3b/4, N = 24
[7] = 5 mg once daily 85 days, CKD Stage 3b, N = 19
[8] = 5 mg once daily 85 days, CKD Stage 4, N = 5
[9] = 10 mg once daily 85 days, CKD Stage 3b/4, N = 24
[10] = 10 mg once daily 85 days, CKD Stage 3b, N = 20
[11] = 10 mg once daily 85 days, CKD Stage 4, N = 4
[12] = 15 mg once daily 85 days, CKD Stage 3b/4, N = 48
[13] = 15 mg once daily 85 days, CKD Stage 3b, N = 26
[14] = 15 mg once daily 85 days, CKD Stage 4, N = 22
[15] = 30 mg once daily 85 days, CKD Stage 3b/4, N = 12
[16] = 30 mg once daily 85 days, CKD Stage 3b, N = 3
[17] = 30 mg once daily 85 days, CKD Stage 4, N = 9

Structure (SMILES): COC(=O)[C@]12CCC(C)(C)C[C@H]1[C@H]1C(=O)C=C3[C@@]4(C)C=C(C#N)C(=O)C(C)(C)[C@@H]4CC[C@@]3(C)[C@]1(C)CC2 [Bardoxolone methyl, methyl-2-cyano-3,12-dioxooleana-1,9-dien-28-oic acid]
- 24-h Urinary Sodium, WK 8 Δ from baseline, mean ([1]; CKD Stage 3b, N = 9): −12 mmol/24 h
- 24-h Urine Volume, WK 8 Δ from baseline, mean ([1]; CKD Stage 3b, N = 9): 355 mL
- 24-h Urinary Sodium, WK 8 Δ from baseline, mean ([1]; CKD Stage 4, N = 6): −89 mmol/24 h
- 24-h Urine Volume, WK 8 Δ from baseline, mean ([1]; CKD Stage 4, N = 6): -610 mL
- ΔDBP, change from baseline [2, 3]: 0.2 ± 1.8
- ΔSBP, change from baseline [2, 3]: 0.1 ± 4.2
- ΔDBP, change from baseline [2, 4]: 1 ± 2
- ΔSBP, change from baseline [2, 4]: 0 ± 4.4
- ΔDBP, change from baseline [2, 5]: −1.5 ± 3.9
- ΔSBP, change from baseline [2, 5]: 0.3 ± 11
- ΔDBP, change from baseline [2, 6]: −1.4 ± 1.5
- ΔSBP, change from baseline [2, 6]: −1.5 ± 2.3
- ΔDBP, change from baseline [2, 7]: −1.3 ± 1.4
- ΔSBP, change from baseline [2, 7]: −2.1 ± 2 ^
- ΔDBP, change from baseline [2, 8]: −1.4 ± 5.6
- ΔSBP, change from baseline [2, 8]: 0.5 ± 9.1
- ΔDBP, change from baseline [2, 9]: 0.3 ± 1.3
- ΔSBP, change from baseline [2, 9]: −2.4 ± 3.1
- ΔDBP, change from baseline [2, 10]: −0.3 ± 1.3
- ΔSBP, change from baseline [2, 10]: −4.2 ± 3.4
- ΔDBP, change from baseline [2, 11]: 3.6 ± 4.5
- ΔSBP, change from baseline [2, 11]: 6.1 ± 6.7
- ΔDBP, change from baseline [2, 12]: −1 ± 1.2
- ΔSBP, change from baseline [2, 12]: 1.1 ± 2.3
- ΔDBP, change from baseline [2, 13]: −1.3 ± 1.5
- ΔSBP, change from baseline [2, 13]: −2.2 ± 3.3
- ΔDBP, change from baseline [2, 14]: −0.6 ± 1.9
- ΔSBP, change from baseline [2, 14]: 5 ± 2.8
- ΔDBP, change from baseline [2, 15]: 3.2 ± 2.2
- ΔSBP, change from baseline [2, 15]: 7.2 ± 6.2
- ΔDBP, change from baseline [2, 16]: −1.8 ± 3.9
- ΔSBP, change from baseline [2, 16]: −0.4 ± 13.8
- ΔDBP, change from baseline [2, 17]: 4.7 ± 2.5
- ΔSBP, change from baseline [2, 17]: 9.7 ± 7.3
- Blood pressure changes ([2]; 2.5 to 30 mg, 85 consecutive days, amorphous dispersion formulation): no dose-related trend in blood pressure changes or change at any individual dose level was noted
- AE, SOC Card: Cardiac failure congestive, patients n (%) ([2]; SDD 2.5 mg QD 85 days, N = 14): 0
- AE, SOC Card: Oedema peripheral, patients n (%) ([2]; SDD 2.5 mg QD 85 days, N = 14): 0
- AE, SOC Genrl: Oedema peripheral, patients n (%) ([2]; SDD 2.5 mg QD 85 days, N = 14): 0
- AE, SOC Metab: Oedema peripheral, patients n (%) ([2]; SDD 2.5 mg QD 85 days, N = 14): 0
- AE, SOC Resp: Dyspnoea exertional, patients n (%) ([2]; SDD 2.5 mg QD 85 days, N = 14): 1 (7)
- AE, SOC Resp: Dyspnoea, patients n (%) ([2]; SDD 2.5 mg QD 85 days, N = 14): 0
- SAE, SOC Card: Cardiac failure congestive, patients n (%) ([2]; SDD 2.5 mg QD 85 days, N = 14): 0
- AE, SOC Card: Cardiac failure congestive, patients n (%) ([2]; SDD 5 mg QD 85 days, N = 25): 0
- AE, SOC Card: Oedema peripheral, patients n (%) ([2]; SDD 5 mg QD 85 days, N = 25): 0
- AE, SOC Genrl: Oedema peripheral, patients n (%) ([2]; SDD 5 mg QD 85 days, N = 25): 3 (12)
- AE, SOC Metab: Oedema peripheral, patients n (%) ([2]; SDD 5 mg QD 85 days, N = 25): 0
- AE, SOC Resp: Dyspnoea exertional, patients n (%) ([2]; SDD 5 mg QD 85 days, N = 25): 0
- AE, SOC Resp: Dyspnoea, patients n (%) ([2]; SDD 5 mg QD 85 days, N = 25): 0
- SAE, SOC Card: Cardiac failure congestive, patients n (%) ([2]; SDD 5 mg QD 85 days, N = 25): 0
- AE, SOC Card: Cardiac failure congestive, patients n (%) ([2]; SDD 10 mg QD 85 days, N = 28): 1 (4)
- AE, SOC Card: Oedema peripheral, patients n (%) ([2]; SDD 10 mg QD 85 days, N = 28): 1 (4)
- AE, SOC Genrl: Oedema peripheral, patients n (%) ([2]; SDD 10 mg QD 85 days, N = 28): 5 (18)
- AE, SOC Metab: Oedema peripheral, patients n (%) ([2]; SDD 10 mg QD 85 days, N = 28): 0
- AE, SOC Resp: Dyspnoea exertional, patients n (%) ([2]; SDD 10 mg QD 85 days, N = 28): 0
- AE, SOC Resp: Dyspnoea, patients n (%) ([2]; SDD 10 mg QD 85 days, N = 28): 0
- SAE, SOC Card: Cardiac failure congestive, patients n (%) ([2]; SDD 10 mg QD 85 days, N = 28): 1 (4)
- AE, SOC Card: Cardiac failure congestive, patients n (%) ([2]; SDD 15 mg QD 85 days, N = 50): 0
- AE, SOC Card: Oedema peripheral, patients n (%) ([2]; SDD 15 mg QD 85 days, N = 50): 1 (2)
- AE, SOC Genrl: Oedema peripheral, patients n (%) ([2]; SDD 15 mg QD 85 days, N = 50): 3 (6)
- AE, SOC Metab: Oedema peripheral, patients n (%) ([2]; SDD 15 mg QD 85 days, N = 50): 0
- AE, SOC Resp: Dyspnoea exertional, patients n (%) ([2]; SDD 15 mg QD 85 days, N = 50): 0
- AE, SOC Resp: Dyspnoea, patients n (%) ([2]; SDD 15 mg QD 85 days, N = 50): 0
